# Where “and” joins values, the source holds several entries; their conditions need not be identical. Equal entries are not always repeated.
# Assays:
# [1] = Long-term stability in spiked pooled human plasma
# [2] = Freeze-thaw stability in spiked pooled human plasma; assay type: physicochemical
# [3] = parameters: method as in supplement references [1-55] as printed per drug; details: minimum steady-state blood plasma concentration after multiple dose administration; ref supplement references [1-55] per drug; cited from earlier work
# [4] = Plasma concentrations in patients on oral antitumor therapy (LC-MS); assay type: in vivo, human
# Text: The liquid chromatography-mass spectrometer system consisted of a Thermo Scientific Dionex UltiMate^TM 3000 with an integrated and temperature controlled autosampler (Thermo Fisher Scientific, Dreieich, Germany). An Acquity UPLC® BEH C18 column (2.1 × 100 mm, 1.7 µm; Waters, Milford, CT, USA) equipped with an Acquity UPLC® BEH C18 VanGuard^TM Pre-Column (2.1 × 5 mm, 1.7 µm; Waters, Milford, CT, USA) was used for chromatographic separation. The Q-Exactive^TM Focus mass spectrometer (MS) was hyphenated with a heated electrospray ionization (HESI) source (both from Thermo Fisher Scientific, Dreieich, Germany).
# Chromatographic separation was achieved using a gradient elution with water containing 0.5% (v/v) FA (eluent A) and MeOH with 0.1% (v/v) FA (eluent B). The injection volume was 5 µL. The gradient program is shown in Supplement Table S2. The flow rate was 0.5 mL/min with a total run time of 15 min. The column heater was maintained at 50 °C and the autosampler temperature was 4 °C.
# The following MS and HESI settings were maintained for all analyses: Sheath gas, auxiliary gas, and sweep gas flow rates were set to 60, 20, and 0, respectively. The spray voltage was 4000 V. Both capillary and auxiliary gas heater temperatures were set to 400 °C. High-purity nitrogen gas was used for the HESI source gases and for the bath gas of the C-trap. […] The HESI source was configured in positive mode for ionization.
# The stock solutions were stored in glass vials at −80 °C. Aliquots of all stock solutions were combined in ACN (volumes of individual stock solution solvents are negligible) to obtain a standard solution of all analytes with an individual concentration of 200% of the respective trough level (cmin). Eight individual working standards were prepared by stepwise dilution of this standard solution with concentrations from 10 to 200% cmin (shown in Supplement Table S3). Furthermore, the four individual IS stock solutions were combined and diluted to 50 ng/mL with ACN. Calibration and validation standards were prepared by spiking 50 µL pooled human plasma with 10 µL of the respective working solution. Next, 250 µL IS solution (50 ng/mL in ACN) were added and vortexed vigorously. […] Then, 100 µL supernatant were transferred to 300 µL HPLC insert glass vials and diluted with 100 µL eluent (90% A/10% B). For blank samples, 50 µL pooled human plasma were combined with 10 µL ACN (instead of working solution) and prepared as described above. The calibration and validation standards were freshly prepared before every run. Patient plasma samples were prepared as calibration and validation standards (no additional processing step necessary), except for adding 10 µL ACN instead of 10 µL working standard. Before sample preparation, the frozen plasma samples were thawed in absence of light at 4 °C.
# Blood samples were collected over the entire dosing interval from patients treated with an oral anticancer drug as listed in Supplement Table S4. […] A maximum of two samples at two different time points throughout the entire dosing interval were collected per patient. Treatment duration before collection was at least five half-lives (depending on the specific oral anticancer drug). The samples were collected in K3-EDTA tubes.
# A total of 71 blood samples from 39 patients treated with 14 different oral anticancer drugs were collected (see Supplement Table S4 for details). All patients were recruited from independent outpatient clinics associated with the Comprehensive Cancer Center of the University Hospital Erlangen (CCC Erlangen-EMN). Of 71 blood samples, 41 were taken ±4 h of trough level (cmin).
# [5] = Autosampler stability of ready for injection samples; assay type: physicochemical, human
# [6] = Short-term stability in spiked pooled human plasma (bench-top, 4 °C, 56 °C)
# [7] = patient plasma, all samples, r.c. = respective cmin
structure (smiles),measurement,setting,value
COc1cc2c(Nc3ccc(Br)cc3F)ncnc2cc1OCC1CCN(C)CC1 [Vandetanib],"Long-term stability, 1 month, -20°C Accuracy [%]",[1]; validation standard 2xLLOV,99.7%
same,"Long-term stability, 1 month, -80°C Accuracy [%]",[1]; validation standard 2xLLOV,97.7%
same,"Long-term stability, 2 month, -20°C Accuracy [%]",[1]; validation standard 2xLLOV,105.9%
same,"Long-term stability, 2 month, -80°C Accuracy [%]",[1]; validation standard 2xLLOV,106.4%
same,"Long-term stability, 3 month, -20°C Accuracy [%]",[1]; validation standard 2xLLOV,101.7%
same,"Long-term stability, 3 month, -80°C Accuracy [%]",[1]; validation standard 2xLLOV,101.7%
same,"Long-term stability, 6 weeks, 4°C, without daylight Accuracy [%]",[1]; validation standard 2xLLOV,92.2%
same,"Long-term stability, 1 month, -20°C Accuracy [%]",[1]; validation standard LLOV,95.3%
same,"Long-term stability, 1 month, -80°C Accuracy [%]",[1]; validation standard LLOV,88.9%
same,"Long-term stability, 2 month, -20°C Accuracy [%]",[1]; validation standard LLOV,97.5%
same,"Long-term stability, 2 month, -80°C Accuracy [%]",[1]; validation standard LLOV,97.6%
same,"Long-term stability, 3 month, -20°C Accuracy [%]",[1]; validation standard LLOV,87.6%
same,"Long-term stability, 3 month, -80°C Accuracy [%]",[1]; validation standard LLOV,83.6%
same,"Long-term stability, 6 weeks, 4°C, without daylight Accuracy [%]",[1]; validation standard LLOV,85.4%
same,"Long-term stability, 1 month, -20°C Accuracy [%]",[1]; validation standard MOV,98.6%
same,"Long-term stability, 1 month, -80°C Accuracy [%]",[1]; validation standard MOV,95.9%
same,"Long-term stability, 2 month, -20°C Accuracy [%]",[1]; validation standard MOV,105.7%
same,"Long-term stability, 2 month, -80°C Accuracy [%]",[1]; validation standard MOV,105.2%
same,"Long-term stability, 3 month, -20°C Accuracy [%]",[1]; validation standard MOV,105.3%
same,"Long-term stability, 3 month, -80°C Accuracy [%]",[1]; validation standard MOV,104.4%
same,"Long-term stability, 6 weeks, 4°C, without daylight Accuracy [%]",[1]; validation standard MOV,100.6%
same,"Long-term stability, 1 month, -20°C Accuracy [%]",[1]; validation standard ULOV,93.1%
same,"Long-term stability, 1 month, -80°C Accuracy [%]",[1]; validation standard ULOV,88.0%
same,"Long-term stability, 2 month, -20°C Accuracy [%]",[1]; validation standard ULOV,98.6%
same,"Long-term stability, 2 month, -80°C Accuracy [%]",[1]; validation standard ULOV,98.6%
same,"Long-term stability, 3 month, -20°C Accuracy [%]",[1]; validation standard ULOV,97.4%
same,"Long-term stability, 3 month, -80°C Accuracy [%]",[1]; validation standard ULOV,98.8%
same,"Long-term stability, 6 weeks, 4°C, without daylight Accuracy [%]",[1]; validation standard ULOV,93.5%
same,Freeze-Thaw Accuracy [%],[2]; validation standard 2xLLOV,97.2%
same,Freeze-Thaw Accuracy [%],[2]; validation standard LLOV,83.4%
same,Freeze-Thaw Accuracy [%],[2]; validation standard MOV,101.5%
same,Freeze-Thaw Accuracy [%],[2]; validation standard ULOV,94.0%
same,cmin,[3],795 ng/mL
same,Measured plasma concentration,"[4]; 300 mg/day, 24 h, ±4 h of trough level: no",757.7 ng/mL and 621.3 ng/mL
same,Median Concentration of All Samples [% of r.c.],[4]; [7],86.7 % of r.c.
same,Min–Max Concentration [% of r.c.],[4]; [7],78.2–95.3 % of r.c.
same,"Autosampler (24h, 4°C) Accuracy [%]",[5]; validation standard 2xLLOV,103.5%
same,"Autosampler (72h, 4°C) Accuracy [%]",[5]; validation standard 2xLLOV,102.7%
same,"Autosampler (24h, 4°C) Accuracy [%]",[5]; validation standard LLOV,85.9%
same,"Autosampler (72h, 4°C) Accuracy [%]",[5]; validation standard LLOV,83.5%
same,"Autosampler (24h, 4°C) Accuracy [%]",[5]; validation standard MOV,108.2%
same,"Autosampler (72h, 4°C) Accuracy [%]",[5]; validation standard MOV,101.8%
same,"Autosampler (24h, 4°C) Accuracy [%]",[5]; validation standard ULOV,95.3%
same,"Autosampler (72h, 4°C) Accuracy [%]",[5]; validation standard ULOV,94.4%
same,"Short-time stability (1h, 56°C) Accuracy [%]",[6]; validation standard 2xLLOV,44.7%
same,"Short-time stability (24h, 4°C, without daylight) Accuracy [%]",[6]; validation standard 2xLLOV,99.4%
same,"Short-time stability (24h, RT, with daylight) Accuracy [%]",[6]; validation standard 2xLLOV,97.2%
same,"Short-time stability (24h, RT, without daylight) Accuracy [%]",[6]; validation standard 2xLLOV,94.8%
same,"Short-time stability (1h, 56°C) Accuracy [%]",[6]; validation standard LLOV,24.9%
same,"Short-time stability (24h, 4°C, without daylight) Accuracy [%]",[6]; validation standard LLOV,91.7%
same,"Short-time stability (24h, RT, with daylight) Accuracy [%]",[6]; validation standard LLOV,81.4%
same,"Short-time stability (24h, RT, without daylight) Accuracy [%]",[6]; validation standard LLOV,80.3%
same,"Short-time stability (1h, 56°C) Accuracy [%]",[6]; validation standard MOV,49.3%
same,"Short-time stability (24h, 4°C, without daylight) Accuracy [%]",[6]; validation standard MOV,101.6%
same,"Short-time stability (24h, RT, with daylight) Accuracy [%]",[6]; validation standard MOV,95.8%
same,"Short-time stability (24h, RT, without daylight) Accuracy [%]",[6]; validation standard MOV,95.1%
same,"Short-time stability (1h, 56°C) Accuracy [%]",[6]; validation standard ULOV,41.3%
same,"Short-time stability (24h, 4°C, without daylight) Accuracy [%]",[6]; validation standard ULOV,88.8%
same,"Short-time stability (24h, RT, with daylight) Accuracy [%]",[6]; validation standard ULOV,83.1%
same,"Short-time stability (24h, RT, without daylight) Accuracy [%]",[6]; validation standard ULOV,83.3%
